This note sets out measurements from article doi:10.1101/2020.05.21.106633v1 (bioRxiv, 2020).

One test has as its system GBM-6 neurospheres. Put plainly: Collagen cell invasion assay. The class given is cell-based, human. The note with it: BTP-7 50 µM, n = 3.
Test [1] has as its target T1, recombinant dg-Bcan protein (deglycosylated recombinant human brevican) (Homo sapiens, UniProt Q96GW7).
T1 sequence (Q96GW7 23-911): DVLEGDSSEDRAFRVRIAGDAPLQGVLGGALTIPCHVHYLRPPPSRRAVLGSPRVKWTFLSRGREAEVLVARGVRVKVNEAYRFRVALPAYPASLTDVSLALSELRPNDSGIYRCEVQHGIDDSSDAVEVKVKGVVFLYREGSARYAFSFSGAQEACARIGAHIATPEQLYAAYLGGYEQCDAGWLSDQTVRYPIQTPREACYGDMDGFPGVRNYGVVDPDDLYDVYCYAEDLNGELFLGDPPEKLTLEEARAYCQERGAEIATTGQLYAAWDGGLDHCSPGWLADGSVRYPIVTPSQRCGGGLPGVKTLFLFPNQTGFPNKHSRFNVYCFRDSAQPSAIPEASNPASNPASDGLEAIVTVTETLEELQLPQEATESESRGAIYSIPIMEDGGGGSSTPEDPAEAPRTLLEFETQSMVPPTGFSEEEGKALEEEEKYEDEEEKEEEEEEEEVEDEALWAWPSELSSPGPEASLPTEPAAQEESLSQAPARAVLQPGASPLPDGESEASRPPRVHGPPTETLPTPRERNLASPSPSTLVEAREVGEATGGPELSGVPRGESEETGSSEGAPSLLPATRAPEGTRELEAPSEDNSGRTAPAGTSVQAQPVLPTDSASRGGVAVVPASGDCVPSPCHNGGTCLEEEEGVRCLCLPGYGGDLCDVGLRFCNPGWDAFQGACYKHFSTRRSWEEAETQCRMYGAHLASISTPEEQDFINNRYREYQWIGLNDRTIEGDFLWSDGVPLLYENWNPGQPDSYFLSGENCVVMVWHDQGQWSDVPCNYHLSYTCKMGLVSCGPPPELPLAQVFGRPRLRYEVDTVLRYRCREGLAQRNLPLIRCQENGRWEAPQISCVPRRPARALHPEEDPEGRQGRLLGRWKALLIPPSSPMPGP
Put plainly: Octet binding kinetic analysis. The following applies: for Rmax (maximal response in response unit): Octet steady state analysis, one site specific binding fit.

The next test relates to GBM-6 cells. Nature of the test: CellTitre-Glo cell viability assay, GBM-6. The class given is cell-based, human. The note with it: BTP-7 50 µM, 48 hrs, nwell = 3.

pKd: −log10 of the molar value. Non-standard residues stand in square brackets, D forms with d. Residues, ends and D or L forms follow the SMILES beside them. *: point of attachment. FITC = O=C1OC2(c3ccc(O)cc3Oc3cc(O)ccc32)c2ccc(NC(=S)*)cc21; Ahx = NCCCCCC(=O)O

Take `CC(C)[C@@H](NC(=O)[C@@H](Cc1c[nH]cn1)NC(=O)CNC(=O)[C@@H](Cc1c[nH]c2ccccc12)NC(=O)[C@@H](CCCCN)NC(=O)[C@H](N)[C@H](C)O)C(=O)N[C@H](CC(N)=O)C(=O)N[C@H](CCCCN)C(N)=O` [BTP-7]: the “effect on GBM-6 invasion in collagen” value in the test with GBM-6 neurospheres is recorded as “not affected”. For the same molecule, the “Rmax (maximal response in response unit)” value in test [1] is recorded as 0.307. The “effect on GBM-6 proliferation” value with GBM-6 cells is “not affected”.
Regarding `CC[C@@H](C)[C@@H](NC(=O)[C@@H](C)NC(=O)[C@@H](CCCNC(=N)N)NC(=O)[C@@H](CCC(N)=O)NC(=O)[C@@H](CCCNC(=N)N)NC(=O)[C@@H](CCCNC(=N)N)NC(=O)[C@@H](CC(=O)O)NC(=O)[C@@H](C)N)C(N)=O` [BTP-9] (H-[dA][dD][dR][dR][dQ][dR][dA][dI]-NH2; N-terminus and C-terminus assumed), the “Rmax (maximal response in response unit)” value in test [1] stood at 0.338.
As to `CC(C)[C@@H](NC(=O)[C@@H](Cc1c[nH]cn1)NC(=O)CNC(=O)[C@@H](Cc1c[nH]c2ccccc12)NC(=O)[C@@H](CCCCN)NC(=O)[C@H](N)[C@H](C)O)C(=O)N[C@H](CC(N)=O)C(=O)N[C@H](CCCCN)C(=O)NCCCCCC(=O)N[C@@H](CCCCNC(=S)Nc1ccc2c(c1)C(=O)OC21c2ccc(O)cc2Oc2cc(O)ccc21)C(N)=O` [Fluorescein-conjugated BTP-7] (H-[dT][dK][dW]G[dH][dV][dN][dK][Ahx]K(FITC)-NH2), the pKd in test [1] was 5.42.

As a reminder, the pKd is the negative decadic logarithm of the Kd, by convention in mol/L.
